Source: patent publication US5300498A, “6-piperazinyl-1H-pyrazolo[3,4-b]pyridine-3-carboxylic acids, esters, amides and related compounds” (Hoechst-Roussel Pharmaceuticals Incorporated, priority 1993, dated 1994)
Where a name gives a salt, the structure may show the parent alone.

test system: serotonin (5HT) uptake; test: [^3 H]-Serotonin Uptake in Rat Whole Brain and Hypothalamic Synaptosomes; assay type: biochemical, rat (male CR Wistar); details: 50 nM [^3 H]-5HT, 37° C., 5 minutes, read-out: Inhibition of Serotonin Uptake, IC50
Procedure: [^3 H]-Serotonin Uptake in Rat Whole Brain and Hypothalamic Synaptosomes
A. Animals: Male CR Wistar rats (100-125 g).
1. Krebs-Henseleit Bicarbonate Buffer, pH 7.4 (KHBB):
Prior to use add to 200 ml, per assay:
Make a 4 liter batch, containing the following salts:
3. Sucrose solution: 0.32M sucrose containing 5 mM HEPES and 0.1 mM EDTA; pH to 7.3 using Tris base.
4. A 0.1 mM stock solution of serotonin creatinine SO4 is made up in 0.01N HCl. This is used to dilute the specific activity of the radiolabeled 5HT.
The final desired concentration of [^3 H]-5HT in the assay is 50 nM. The dilution factor is 0.8.
6. For most assays, a 0.5 mM stock solution of the test compound is made up initially in either 10 μl of glacial acetic acid, 100 μl DMSO or 10 μl of the recrystallization solvent, to which is added approximately 10 ml of distilled water. Compounds are initially screened in duplicate at 3 concentrations (10^-8, 10^-7 and 10^-6 M) made up in water.
43, 1114 (1984) and Dunkley, P. R., Jarvie, R. E., Heath, J. W., Kidd, G. J., Rostas, J. A. P. Brain Research 372, 115 (1986). Male Wistar rats are decapitated and the brain rapidly removed. […] The following procedures are performed on ice. Homogenization should be done with 4-5 up and down strokes at medium speeds (setting 4.5 to 5) to minimize synaptosome lysis.
Tubes are carefully removed, and the top layer and the top part of the middle (red) layer are discarded using a pasteur pipette. […] This is carefully removed, placed in a centrifuge tube, diluted with KHBB and spun at 21,000 g (13,000 rpm, Sorvall SS-34 rotor).
200 μl of the tissue suspension are added to each of 24 tubes (at a time) containing the 20 μl of vehicle or drug on ice. Three minutes later, 800 μl of KHBB containing [^3 H]-5HT are added, and the tubes are vortexed. […] Uptake is terminated by filtration through GF/B filter strips using a Brandel cell harvester (filter strips are presoaked in ice cold filtration buffer). Tubes are washed once with 5 ml of ice cold filtration buffer.

First: CN1CCN(c2ccc3cn[nH]c3n2)CC1 [6-(4-Methyl-1-piperazinyl)-1H-pyrazolo[3,4-b]pyridine]
Second: CN1CCN(c2ccc3cnn(C)c3n2)CC1 [1-Methyl-6-(4-methyl-1-piperazinyl)-1H-pyrazolo[3,4-b]pyridine]
The IC50 of the first is 2.4-fold higher: 8260 nM for the first, 3430 nM for the second.

`CN1CCN(c2ccc3c(C#N)n[nH]c3n2)CC1` [6-(4-Methyl-1-piperazinyl)-1H-pyrazolo[3,4-b]pyridine-3-carbonitrile] and `N#Cc1n[nH]c2nc(N3CCNCC3)ccc12` [6-(1-Piperazinyl)-1H-pyrazolo[3,4-b]pyridine-3-carbonitrile] are within 1.5-fold of each other in IC50: 764 nM for the first, 696 nM for the second.

Going from `NC(=O)c1n[nH]c2nc(N3CCNCC3)ccc12` [6-(1-Piperazinyl)-1H-pyrazolo[3,4-b]pyridine-3-carboxamide hydrochloride hydrate] to `N#Cc1n[nH]c2nc(N3CCCNCC3)ccc12` [6-(Hexahydro-1H-1,4-diazepin-1-yl)-1H-pyrazolo[3,4-b]pyridine-3-carbonitril], the IC50 falls from 7690 nM to 349 nM (22-fold).
